Laboratory results: ChEMBL document CHEMBL1143816, “Daptomycin produces an enhanced bactericidal activity compared to ceftriaxone, measured by [3H]choline release in the cerebrospinal fluid, in experimental meningitis due to a penicillin-resistant pneumococcal strain without lysing its cell wall” (2007)
≈ marks a conversion by molar mass, not a printed value.

What was measured:
Assay type in all cases: functional
Streptococcus pneumoniae [1] = experiment: Antimicrobial activity in Streptococcus pneumoniae WB4 infected New Zealand white rabbit meningitis model assessed as decrease in viable cells in CSF at 15 mg/kg after 8 hrs
Streptococcus pneumoniae [2] = experiment: Antimicrobial activity against Streptococcus pneumoniae WB4 by broth macrodilution method
Streptococcus pneumoniae [3] = experiment: Antimicrobial activity in Streptococcus pneumoniae WB4 infected New Zealand white rabbit meningitis model assessed as increase in [3H]choline release in CSF at 15 mg/kg after 4 hrs
Streptococcus pneumoniae [4] = experiment: Antimicrobial activity in Streptococcus pneumoniae WB4 infected New Zealand white rabbit meningitis model assessed as decrease in viable cells in CSF at 125 mg/kg after 8 hrs
Streptococcus pneumoniae [5] = experiment: Antimicrobial activity in Streptococcus pneumoniae WB4 infected New Zealand white rabbit meningitis model assessed as increase in [3H]choline release in CSF at 125 mg/kg after 4 to 6 hrs

SMILES | log10CFU/ml (Streptococcus pneumoniae [1]) | MIC (Streptococcus pneumoniae [2]) [µg/mL] | Activity (Streptococcus pneumoniae [3]) [cpm/min] | log10CFU/ml (Streptococcus pneumoniae [4]) | Activity (Streptococcus pneumoniae [5]) [cpm/min]
CCCCCCCCCC(=O)N[C@@H](Cc1c[nH]c2ccccc12)C(=O)N[C@H](CC(N)=O)C(=O)N[C@@H](CC(=O)O)C(=O)N[C@@H]1C(=O)NCC(=O)N[C@@H](CCCN)C(=O)N[C@@H](CC(=O)O)C(=O)N[C@H](C)C(=O)N[C@@H](CC(=O)O)C(=O)NCC(=O)N[C@H](CO)C(=O)N[C@@H]([C@H](C)CC(=O)O)C(=O)N[C@@H](CC(=O)c2ccccc2N)C(=O)O[C@@H]1C | -6.64 | 0.06 (≈ 0.037 µM) | 250 |  | 
CO/N=C(\C(=O)NC1C(=O)N2C(C(=O)O)=C(COC(C)=O)CS[C@H]12)c1csc(N)n1 (single isomer, unassigned) [CEFOTAXIME] |  | 1 (≈ 2.2 µM) |  |  | 
CO/N=C(\C(=O)N[C@@H]1C(=O)N2C(C(=O)O)=C(CSc3nc(=O)c(O)nn3C)CS[C@H]12)c1csc(N)n1 [CEFTRIAXONE] |  | 0.5 (≈ 0.902 µM) |  | -4.04 | 2500
COc1c(N2C[C@@H]3CCCN[C@@H]3C2)c(F)cc2c(=O)c(C(=O)O)cn(C3CC3)c12 [MOXIFLOXACIN] |  | 0.12 (≈ 0.299 µM) |  |  | 
CN[C@H](CC(C)C)C(=O)N[C@H]1C(=O)N[C@@H](CC(N)=O)C(=O)N[C@H]2C(=O)N[C@H]3C(=O)N[C@H](C(=O)N[C@H](C(=O)O)c4cc(O)cc(O)c4-c4cc3ccc4O)[C@H](O)c3ccc(c(Cl)c3)Oc3cc2cc(c3O[C@@H]2O[C@H](CO)[C@@H](O)[C@H](O)[C@H]2O[C@H]2C[C@](C)(N)[C@H](O)[C@H](C)O2)Oc2ccc(cc2Cl)[C@H]1O [VANCOMYCIN] |  | 0.12 (≈ 0.0828 µM) |  |  | 
